From US6974820B2, “Methods for treating urinary incontinence and other disorders using trospium” (Bridge Pharma, Inc., priority 2002, dated 2005) come the findings set out here.

One series relates to QTc interval of the ECG. In words: Cardiac side effects: QTc interval of the ECG in anesthetized guinea pigs. The settings on record: for Prolongation of the QTc interval of the ECG (in words): intravenous infusion; for ΔQTc (%): intravenous infusion over 30 min.
For series [1], the target named is T1, CYP 2D6 (Homo sapiens, UniProt P10635).
T1 sequence (P10635 whole entry): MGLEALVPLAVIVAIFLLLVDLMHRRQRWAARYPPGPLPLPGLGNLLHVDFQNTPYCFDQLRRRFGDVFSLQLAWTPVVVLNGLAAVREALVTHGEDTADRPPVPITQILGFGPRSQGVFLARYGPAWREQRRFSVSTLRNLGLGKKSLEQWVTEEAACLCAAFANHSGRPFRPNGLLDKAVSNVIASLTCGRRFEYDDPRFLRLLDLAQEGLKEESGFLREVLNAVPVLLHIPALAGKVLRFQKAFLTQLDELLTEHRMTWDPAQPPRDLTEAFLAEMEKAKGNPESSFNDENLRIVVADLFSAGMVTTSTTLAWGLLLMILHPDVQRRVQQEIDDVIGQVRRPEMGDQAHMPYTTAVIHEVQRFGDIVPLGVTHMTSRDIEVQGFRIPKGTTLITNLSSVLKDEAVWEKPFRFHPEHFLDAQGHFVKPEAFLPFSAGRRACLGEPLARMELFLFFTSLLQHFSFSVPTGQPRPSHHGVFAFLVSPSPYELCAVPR
For series [2], the target named is T2, human recombinant muscarinic receptor M-4 (Homo sapiens, UniProt P08173).
T2 construct: expressed in transfected cells; host or cells: SF9 insect cells (membranes)
T2 sequence (P08173 1-479): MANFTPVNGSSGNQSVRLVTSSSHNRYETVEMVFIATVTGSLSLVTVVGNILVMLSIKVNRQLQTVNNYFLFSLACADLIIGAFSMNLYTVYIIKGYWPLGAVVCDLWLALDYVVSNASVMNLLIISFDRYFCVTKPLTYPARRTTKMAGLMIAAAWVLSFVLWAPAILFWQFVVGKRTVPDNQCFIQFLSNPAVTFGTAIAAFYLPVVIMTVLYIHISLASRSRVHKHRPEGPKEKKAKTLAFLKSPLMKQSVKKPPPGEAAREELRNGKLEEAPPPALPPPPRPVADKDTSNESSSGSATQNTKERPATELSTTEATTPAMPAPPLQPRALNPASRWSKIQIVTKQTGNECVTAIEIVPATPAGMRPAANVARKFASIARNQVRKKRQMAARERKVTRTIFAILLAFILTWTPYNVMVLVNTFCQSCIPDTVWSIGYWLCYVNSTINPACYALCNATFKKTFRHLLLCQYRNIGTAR
The format is binding.

The target of series [3] is T3, human recombinant muscarinic receptor M-3 (Homo sapiens, UniProt P20309).
T3 construct: expressed in transfected cells; host or cells: SF9 insect cells (membranes)
T3 sequence (P20309 whole entry): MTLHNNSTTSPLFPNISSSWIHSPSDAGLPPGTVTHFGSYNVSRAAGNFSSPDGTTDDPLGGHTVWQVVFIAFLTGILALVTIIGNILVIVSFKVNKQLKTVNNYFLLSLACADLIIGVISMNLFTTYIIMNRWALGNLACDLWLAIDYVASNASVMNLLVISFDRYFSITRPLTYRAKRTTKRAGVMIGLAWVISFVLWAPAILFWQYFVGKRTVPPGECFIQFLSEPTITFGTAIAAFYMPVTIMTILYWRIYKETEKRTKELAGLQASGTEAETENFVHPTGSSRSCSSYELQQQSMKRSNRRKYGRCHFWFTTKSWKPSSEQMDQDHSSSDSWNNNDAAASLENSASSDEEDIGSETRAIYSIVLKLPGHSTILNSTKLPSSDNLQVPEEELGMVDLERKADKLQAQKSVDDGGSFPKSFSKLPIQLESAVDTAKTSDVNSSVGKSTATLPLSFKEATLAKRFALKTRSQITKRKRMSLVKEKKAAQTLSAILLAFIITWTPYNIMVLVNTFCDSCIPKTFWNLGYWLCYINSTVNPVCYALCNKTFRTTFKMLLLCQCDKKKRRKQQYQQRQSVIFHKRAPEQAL
In words: biochemical. The format is binding.

The target of series [4] is T4, human recombinant muscarinic receptor M-1 (Homo sapiens, UniProt P11229).
T4 construct: expressed in transfected cells; host or cells: SF9 insect cells (membranes)
T4 sequence (P11229 1-460): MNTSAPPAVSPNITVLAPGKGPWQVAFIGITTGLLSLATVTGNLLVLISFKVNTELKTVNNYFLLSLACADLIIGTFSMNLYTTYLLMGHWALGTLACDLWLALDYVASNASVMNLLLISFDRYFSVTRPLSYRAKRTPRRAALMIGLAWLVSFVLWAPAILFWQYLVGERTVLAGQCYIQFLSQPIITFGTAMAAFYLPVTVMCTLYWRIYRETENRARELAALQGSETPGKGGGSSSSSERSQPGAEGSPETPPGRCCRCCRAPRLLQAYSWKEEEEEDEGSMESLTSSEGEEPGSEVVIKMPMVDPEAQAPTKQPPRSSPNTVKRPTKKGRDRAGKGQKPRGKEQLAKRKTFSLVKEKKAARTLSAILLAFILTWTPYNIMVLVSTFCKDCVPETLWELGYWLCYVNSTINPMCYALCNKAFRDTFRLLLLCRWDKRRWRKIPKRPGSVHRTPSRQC
The series can be described thus: biochemical. Format: binding.

Series [5] deals with T1, CYP 2D6. In words: biochemical.

Structures are written as SMILES. pIC50, pKi: −log10 of the molar value. Read-outs that look alike come from different tables or passages of the source.

`CCN(CC)CC#CCOC(=O)C(O)(c1ccccc1)C1CCCCC1` (stereo not shown) [Oxybutynin]: in the series on QTc interval of the ECG, the “Prolongation of the QTc interval of the ECG (in words)” value is listed as “statistically significant prolongation” and the “ΔQTc (%)” value is “+12 ± 2%”. The “Inhibition of CYP 2D6 isoenzyme metabolism (in words)” value at CYP 2D6 [1] is given as “potently inhibit”.

On to `CC(CC(c1ccccc1)c1ccccc1)NC(C)(C)C` (stereo not shown) [Terodiline], for which, in the series on QTc interval of the ECG, the “Prolongation of the QTc interval of the ECG (in words)” value was “statistically significant prolongation” and the “ΔQTc (%)” value was “+11 ± 1%”.

`O=C(O[C@H]1C[C@H]2CC[C@@H](C1)[N+]21CCCC1)C(O)(c1ccccc1)c1ccccc1` [Trospium, 3α-hydroxy-spiro[1αH,5αH-nortropane-8,1′-pyrrolidinium] chloride benzilate]: the pKi in series [2] is 9.00; in series [3], 9.30; in series [4], 9.10. Also, in the series with QTc interval of the ECG, the “Prolongation of the QTc interval of the ECG (in words)” value is on record as “no effects”. Moreover, in the series on QTc interval of the ECG, the “ΔQTc (%)” value was −2 ± 1%. Besides, the pIC50 against CYP 2D6 [5] was around 4.70.

As to `Cc1ccc(O)c([C@H](CCN(C(C)C)C(C)C)c2ccccc2)c1` [Tolterodine], the Ki in series [2] (membranes of SF9 cells expressing human recombinant receptor, read-out: Affinity (negative logarithm of the dissociation constant Ki) M-4 (converted)) is 20 nM. In addition, in the series with QTc interval of the ECG, the “Prolongation of the QTc interval of the ECG (in words)” value was “statistically significant prolongation” and the “ΔQTc (%)” value was “+16 ± 1%”. For the same compound, the pKi in series [4] is 8.80.

Turning to `CC(C)(C)c1ccc(C(O)CCCN2CCC(C(O)(c3ccccc3)c3ccccc3)CC2)cc1` (stereo not shown) [terfenadine], in the series with QTc interval of the ECG, the “Prolongation of the QTc interval of the ECG (in words)” value was “caused QT-prolongation”.

The term pKi denotes −log10 of the Ki, conventionally taken in molar units. The term pIC50 denotes the negative decadic logarithm of the IC50, by convention in mol/L. The term Ki denotes a dissociation constant, usually derived from enzyme kinetics or from competition with a known ligand.
